From patent US12180193B2, “Accelerating fibrosarcoma protein degrading compounds and associated methods of use” (Arvinas Operations, Inc., priority 2020, dated 2024)
Where two headings read alike, the source gives them in different places.

Experiments:
BRAF V600E = molecular target: T1, BRAF V600E (Homo sapiens, UniProt P15056, V600E); assay: Cellular assay of target protein degradation, T-Rex 293 cells stably transfected with HA-BRAF_V600E (HA immunofluorescence, high content imaging); format: cell-based
T1 construct: expressed in transfected cells
Outline: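 HA immunofluorescence on fixed cells, imaged by high-content reader, measured loss of HA-BRAF V600E in stably transfected T-Rex 293 cells induced with 1 ng/mL doxycycline. Compounds were applied for 24 h at 37 °C (final 0.1 nM–1 μM, 0.1% DMSO); DC50 and Dmax (% of control) were reported.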

BRAF G466V = molecular target: T2, BRAF G466V (Homo sapiens, UniProt P15056, G466V); assay: Cellular assay of target protein degradation, T-Rex 293 cells stably transfected with HA-BRAF G466V (HA immunofluorescence, high content imaging); format: cell-based
T2 construct: expressed in transfected cells
Outline: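 HA-BRAF G466V levels were read by HA immunofluorescence and high-content imaging after 24 h compound exposure (final 30 nM–3 pM, 0.1% DMSO, 37 °C). Expression was induced with 0.75 ng/mL doxycycline. Outputs: half-maximal degradation concentration (DC50) and maximal degradation (Dmax) relative to control.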

[1] = half maximal degradation, T-Rex 293 HA-BRAF V600E; read-out: BRaf V600E DC50
[2] = maximum degradation observed, T-Rex 293 HA-BRAF V600E
[3] = half maximal degradation, T-Rex 293 HA-BRAF G466V; read-out: BRaf G466V DC50
[4] = maximum degradation observed, T-Rex 293 HA-BRAF G466V

T1 sequence (P15056 whole entry V600E): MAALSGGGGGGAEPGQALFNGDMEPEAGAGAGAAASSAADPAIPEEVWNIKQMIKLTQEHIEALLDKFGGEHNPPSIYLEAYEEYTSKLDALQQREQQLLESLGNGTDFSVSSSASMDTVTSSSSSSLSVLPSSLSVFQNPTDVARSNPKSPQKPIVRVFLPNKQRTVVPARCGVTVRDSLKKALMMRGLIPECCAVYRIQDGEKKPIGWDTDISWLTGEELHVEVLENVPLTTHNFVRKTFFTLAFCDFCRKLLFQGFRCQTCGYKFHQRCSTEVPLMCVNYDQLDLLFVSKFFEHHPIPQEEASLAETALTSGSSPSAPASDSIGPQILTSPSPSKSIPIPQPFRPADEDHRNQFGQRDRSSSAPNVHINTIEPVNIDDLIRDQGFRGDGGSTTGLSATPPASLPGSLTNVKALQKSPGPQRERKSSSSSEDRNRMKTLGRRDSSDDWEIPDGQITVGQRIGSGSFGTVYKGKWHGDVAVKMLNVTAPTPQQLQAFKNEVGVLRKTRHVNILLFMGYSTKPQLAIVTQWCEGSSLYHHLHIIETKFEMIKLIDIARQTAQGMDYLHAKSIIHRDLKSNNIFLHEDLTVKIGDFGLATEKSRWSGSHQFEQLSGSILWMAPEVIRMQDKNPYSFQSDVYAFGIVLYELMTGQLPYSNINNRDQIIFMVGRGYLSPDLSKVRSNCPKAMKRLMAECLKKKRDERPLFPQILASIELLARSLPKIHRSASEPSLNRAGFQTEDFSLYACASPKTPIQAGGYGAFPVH
T2 sequence (P15056 whole entry G466V): as the sequence (P15056 whole entry V600E) above, with G466V, E600V counted along it

SMILES | DC50 (BRAF V600E; [1]) [nM] | Dmax (BRAF V600E; [2]) [%] | DC50 (BRAF G466V; [3]) [nM] | Dmax (BRAF G466V; [4]) [%] | DC50 (BRAF V600E; read-out: BRaf V600E DC50; half maximal degradation, T-Rex 293 HA-BRAF V600E) [nM] | DC50 (BRAF G466V; read-out: BRaf G466V DC50; half maximal degradation, T-Rex 293 HA-BRAF G466V) [nM]
COc1cc(N2CC3(CC(CN4CCN(c5ccc(-c6cnc7[nH]cc(C(=O)c8c(F)ccc(NS(=O)(=O)N9CC[C@@H](F)C9)c8F)c7c6)cc5)CC4)C3)C2)cc2c1C(=O)N(C1CCC(=O)NC1=O)C2 (stereo partly drawn) [Compound 59, (3R)-N-[3-(5-{4-[4-({2-[2-(2,6-dioxopiperidin-3-yl)-7-methoxy-1-oxo-2,3-dihydro-1H-isoindol-5-yl]-2-azaspiro[3.3]heptan-6-yl}methyl)piperazin-1-yl]phenyl}-1H-pyrrolo[2,3-b]pyridine-3-carbonyl)-2,4-difluorophenyl]-3-fluoropyrrolidine-1-sulfonamide] | 5 to 50 | 35 to 70 | 1 to 10 | > 70 |  | 
CC(C)(C1CCN(c2ccc(-c3cnc4[nH]cc(C(=O)c5c(F)ccc(NS(=O)(=O)N6CC[C@@H](F)C6)c5F)c4c3)cc2)CC1)N1CC2(CN(c3ccc4c(c3)CN(C3CCC(=O)NC3=O)C4=O)C2)C1 (stereo partly drawn) [Compound 60, (3R)-N-[3-(5-{4-[4-(2-{6-[2-(2,6-dioxopiperidin-3-yl)-1-oxo-2,3-dihydro-1H-isoindol-5-yl]-2,6-diazaspiro[3.3]heptan-2-yl}propan-2-yl)piperidin-1-yl]phenyl}-1H-pyrrolo[2,3-b]pyridine-3-carbonyl)-2,4-difluorophenyl]-3-fluoropyrrolidine-1-sulfonamide] |  | 35 to 70 |  | > 70 | 5 to 50 | 1 to 10
O=C1CC[C@H](N2Cc3cc(CCCCN4CC5(C4)CN(c4ccc(-c6cnc7[nH]cc(C(=O)c8c(F)ccc(NS(=O)(=O)N9CC[C@@H](F)C9)c8F)c7c6)cc4)C5)ccc3C2=O)C(=O)N1 [Compound 62, (3R)-N-[3-(5-{4-[6-(4-{2-[(3S)-2,6-dioxopiperidin-3-yl]-1-oxo-2,3-dihydro-1H-isoindol-5-yl}butyl)-2,6-diazaspiro[3.3]heptan-2-yl]phenyl}-1H-pyrrolo[2,3-b]pyridine-3-carbonyl)-2,4-difluorophenyl]-3-fluoropyrrolidine-1-sulfonamide] | < 5 | 35 to 70 | < 1 | 35 to 70 |  | 
O=C1CC[C@@H](N2Cc3cc(CCCCN4CC5(C4)CN(c4ccc(-c6cnc7[nH]cc(C(=O)c8c(F)ccc(NS(=O)(=O)N9CC[C@@H](F)C9)c8F)c7c6)cc4)C5)ccc3C2=O)C(=O)N1 [Compound 63, (3R)-N-[3-(5-{4-[6-(4-{2-[(3R)-2,6-dioxopiperidin-3-yl]-1-oxo-2,3-dihydro-1H-isoindol-5-yl}butyl)-2,6-diazaspiro[3.3]heptan-2-yl]phenyl}-1H-pyrrolo[2,3-b]pyridine-3-carbonyl)-2,4-difluorophenyl]-3-fluoropyrrolidine-1-sulfonamide] | > 500 |  | 1 to 10 | > 70 |  | 
O=C1CCC(N2Cc3cc(CCCCCN4CCC(c5ccc(-c6cnc7[nH]cc(C(=O)c8c(F)ccc(NS(=O)(=O)N9CC[C@@H](F)C9)c8F)c7c6)cc5)CC4)ccc3C2=O)C(=O)N1 (stereo partly drawn) [Compound 65, (3R)-N-(3-{5-[4-(1-{5-[2-(2,6-dioxopiperidin-3-yl)-1-oxo-2,3-dihydro-1H-isoindol-5-yl]pentyl}piperidin-4-yl)phenyl]-1H-pyrrolo[2,3-b]pyridine-3-carbonyl}-2,4-difluorophenyl)-3-fluoropyrrolidine-1-sulfonamide] | 5 to 50 | 35 to 70 | < 1 | 35 to 70 |  | 
O=C1CC[C@H](N2Cc3cc([C@H](O)CCN4CCC(c5ccc(-c6cnc7[nH]cc(C(=O)c8c(F)ccc(NS(=O)(=O)N9CC[C@@H](F)C9)c8F)c7c6)cc5)CC4)ccc3C2=O)C(=O)N1 [Compound 67, (3R)—N-[3-[5-(4-[1-[(3R)-3-[2-[(3S)-2,6-dioxopiperidin-3-yl]-1-oxo-3H-isoindol-5-yl]-3-hydroxypropyl]piperidin-4-yl]phenyl)-1H-pyrrolo[2,3-b]pyridine-3-carbonyl]-2,4-difluorophenyl]-3-fluoropyrrolidine-1-sulfonamide] | 5 to 50 | 35 to 70 | 1 to 10 | > 70 |  | 
O=C1CCC(N2Cc3cc(C4CCN(CCOc5ccc(-c6cnc7[nH]cc(C(=O)c8c(F)ccc(NS(=O)(=O)N9CC[C@@H](F)C9)c8F)c7c6)cc5)CC4)ccc3C2=O)C(=O)N1 (stereo partly drawn) [Compound 69, (3R)-N-(3-{5-[4-(2-{4-[2-(2,6-dioxopiperidin-3-yl)-1-oxo-2,3-dihydro-1H-isoindol-5-yl]piperidin-1-yl}ethoxy)phenyl]-1H-pyrrolo[2,3-b]pyridine-3-carbonyl}-2,4-difluorophenyl)-3-fluoropyrrolidine-1-sulfonamide] | 5 to 50 | 35 to 70 | 1 to 10 | > 70 |  | 

Continued, in another order:

DC50 (BRAF V600E; [1]) [nM] | Dmax (BRAF V600E; [2]) [%] | DC50 (BRAF G466V; [3]) [nM] | Dmax (BRAF G466V; [4]) [%] | SMILES | DC50 (BRAF V600E; read-out: BRaf V600E DC50; half maximal degradation, T-Rex 293 HA-BRAF V600E) [nM] | DC50 (BRAF G466V; read-out: BRaf G466V DC50; half maximal degradation, T-Rex 293 HA-BRAF G466V) [nM]
< 5 | 35 to 70 | < 1 | > 70 | O=C1CC[C@H](N2Cc3cc(N4C[C@H]5CN(CC6CCN(c7ccc(-c8cnc9[nH]cc(C(=O)c%10c(F)ccc(NS(=O)(=O)N%11CC[C@@H](F)C%11)c%10F)c9c8)cc7)CC6)C[C@H]5C4)ccc3C2=O)C(=O)N1 [Compound 57, (3R)-N-(3-{5-[4-(4-{[(3aR,6aS)-5-{2-[(3S)-2,6-dioxopiperidin-3-yl]-1-oxo-2,3-dihydro-1H-isoindol-5-yl}-octahydropyrrolo [3,4-c]pyrrol-2-yl]methyl}piperidin-1-yl)phenyl]-1H-pyrrolo[2,3-b]pyridine-3-carbonyl}-2,4-difluorophenyl)-3-fluoropyrrolidine-1-sulfonamide] |  | 
< 5 | < 35 | < 1 | 35 to 70 | O=C1CC[C@@H](N2Cc3cc(N4C[C@H]5CN(CC6CCN(c7ccc(-c8cnc9[nH]cc(C(=O)c%10c(F)ccc(NS(=O)(=O)N%11CC[C@@H](F)C%11)c%10F)c9c8)cc7)CC6)C[C@H]5C4)ccc3C2=O)C(=O)N1 [Compound 58, (3R)-N-(3-{5-[4-(4-{[(3aR,6aS)-5-{2-[(3R)-2,6-dioxopiperidin-3-yl]-1-oxo-2,3-dihydro-1H-isoindol-5-yl}-octahydropyrrolo [3,4-c]pyrrol-2-yl]methyl}piperidin-1-yl)phenyl]-1H-pyrrolo[2,3-b]pyridine-3-carbonyl}-2,4-difluorophenyl)-3-fluoropyrrolidine-1-sulfonamide] |  | 
5 to 50 | 35 to 70 | 1 to 10 | 35 to 70 | O=C1CCC(N2Cc3cc(C(O)CCN4CC5(C4)CN(c4ccc(-c6cnc7[nH]cc(C(=O)c8c(F)ccc(NS(=O)(=O)N9CC[C@@H](F)C9)c8F)c7c6)cc4)C5)ccc3C2=O)C(=O)N1 (stereo partly drawn) [Compound 61, (3R)-N-(3-{5-[4-(6-{3-[2-(2,6-dioxopiperidin-3-yl)-1-oxo-2,3-dihydro-1H-isoindol-5-yl]-3-hydroxypropyl}-2,6-diazaspiro[3.3]heptan-2-yl)phenyl]-1H-pyrrolo[2,3-b]pyridine-3-carbonyl}-2,4-difluorophenyl)-3-fluoropyrrolidine-1-sulfonamide] |  | 
5 to 50 | 35 to 70 | < 1 | 35 to 70 | O=C1CCC(N2Cc3cc(CCCCCN4CCN(c5ccc(-c6cnc7[nH]cc(C(=O)c8c(F)ccc(NS(=O)(=O)N9CC[C@@H](F)C9)c8F)c7c6)cc5)CC4)ccc3C2=O)C(=O)N1 (stereo partly drawn) [Compound 64, (3R)-N-(3-{5-[4-(4-{5-[2-(2,6-dioxopiperidin-3-yl)-1-oxo-2,3-dihydro-1H-isoindol-5-yl]pentyl}piperazin-1-yl)phenyl]-1H-pyrrolo[2,3-b]pyridine-3-carbonyl}-2,4-difluorophenyl)-3-fluoropyrrolidine-1-sulfonamide] |  | 
> 500 |  | 10 to 30 | > 70 | O=C1CCC(N2Cc3cc(N4CCC(N5CCCC56CN(c5ccc(-c7cnc8[nH]cc(C(=O)c9c(F)ccc(NS(=O)(=O)N%10CC[C@@H](F)C%10)c9F)c8c7)cc5)C6)CC4)ccc3C2=O)C(=O)N1 (stereo partly drawn) [Compound 66, (3R)-N-(3-{5-[4-(5-{1-[2-(2,6-dioxopiperidin-3-yl)-1-oxo-2,3-dihydro-1H-isoindol-5-yl]piperidin-4-yl}-2,5-diazaspiro[3.4]octan-2-yl)phenyl]-1H-pyrrolo[2,3-b]pyridine-3-carbonyl}-2,4-difluorophenyl)-3-fluoropyrrolidine-1-sulfonamide] |  | 
> 500 |  | 1 to 10 | > 70 | O=C1CC[C@@H](N2Cc3cc([C@H](O)CCN4CCC(c5ccc(-c6cnc7[nH]cc(C(=O)c8c(F)ccc(NS(=O)(=O)N9CC[C@@H](F)C9)c8F)c7c6)cc5)CC4)ccc3C2=O)C(=O)N1 [Compound 68, (3R)—N-[3-[5-(4-[1-[(3R)-3-[2-[(3R)-2,6-dioxopiperidin-3-yl]-1-oxo-3H-isoindol-5-yl]-3-hydroxypropyl]piperidin-4-yl]phenyl)-1H-pyrrolo[2,3-b]pyridine-3-carbonyl]-2,4-difluorophenyl]-3-fluoropyrrolidine-1-sulfonamide] |  | 
5 to 50 | 35 to 70 | < 1 | 35 to 70 | COc1cc(N2CC(CN3CCN(c4ccc(-c5cnc6[nH]cc(C(=O)c7c(F)ccc(NS(=O)(=O)N8CC[C@@H](F)C8)c7F)c6c5)cc4)CC3)C2)cc2c1C(=O)N(C1CCC(=O)NC1=O)C2 (stereo partly drawn) [Compound 70, (3R)-N-[3-(5-{4-[4-({1-[2-(2,6-dioxopiperidin-3-yl)-7-methoxy-1-oxo-2,3-dihydro-1H-isoindol-5-yl]azetidin-3-yl}methyl)piperazin-1-yl]phenyl}-1H-pyrrolo[2,3-b]pyridine-3-carbonyl)-2,4-difluorophenyl]-3-fluoropyrrolidine-1-sulfonamide] |  | 
